Data taken from patent US11408885B2, “Compositions and multiplex assays for characterizing active proteases and their inhibitors” (Massachusetts Institute of Technology, priority 2017, dated 2022).

Experiments:
[1] = system: proteases in peritoneal fluid of control donors and endometriosis patients; assay: FRET substrate cleavage in clarified peritoneal fluid; format: biochemical, human; settings: peritoneal fluids of six control donors and six endometriosis patients; 500 nM or 1500 nM HxBP-Bt
Excerpt: Clarified peritoneal fluid from patients with endometriosis was compared to that from a control population with regards to the active MMP compositions and quantities. Peritoneal fluid is a mixture of cell debris, leukocytes, and thousands of soluble proteins including over 100 proteases and protease inhibitors that is contained within the pelvic cavity and interacts with endometriotic lesions (Amon, et al, PLoS ONE, 5(6) (2010)).
All laparoscopy patients provided informed consent in accordance with a protocol approved by the Partners Human Research Committee and the Massachusetts Institute of Technology Committee on the Use of Humans as Experimental Subjects. Enrollment was limited to pre-menopausal women with regular cycles (26-32 days) and excluded individuals who had received hormonal treatment within three months of surgery. Moderate/Severe (Stage III/IV) endometriosis was diagnosed according to the revised criteria of the American Society for Reproductive Medicine 8. Peritoneal fluid was aspirated from the rectouterine pouch immediately following trocar insertion and prior to peritoneal lavage or surgical manipulation. Upon collection, specimens were immediately placed on wet ice and clarified within 15 min. by centrifugation for 10 min. at 1000 rcf. Clarified aspirates were transported to the laboratory on ice, aliquoted, and stored at −80° C. until analysis.

MMP2 = target: T1, MMP2 (Homo sapiens, UniProt P08253); assay: FRET substrate cleavage by recombinant MMP, inhibition by activity-based probe; format: biochemical; design: purchased Peprotech; settings: FRET substrate PEPDAB011 10 μM, read-out: IC50, inhibition of substrate cleavage of active MMP
T1 sequence (P08253 110-660): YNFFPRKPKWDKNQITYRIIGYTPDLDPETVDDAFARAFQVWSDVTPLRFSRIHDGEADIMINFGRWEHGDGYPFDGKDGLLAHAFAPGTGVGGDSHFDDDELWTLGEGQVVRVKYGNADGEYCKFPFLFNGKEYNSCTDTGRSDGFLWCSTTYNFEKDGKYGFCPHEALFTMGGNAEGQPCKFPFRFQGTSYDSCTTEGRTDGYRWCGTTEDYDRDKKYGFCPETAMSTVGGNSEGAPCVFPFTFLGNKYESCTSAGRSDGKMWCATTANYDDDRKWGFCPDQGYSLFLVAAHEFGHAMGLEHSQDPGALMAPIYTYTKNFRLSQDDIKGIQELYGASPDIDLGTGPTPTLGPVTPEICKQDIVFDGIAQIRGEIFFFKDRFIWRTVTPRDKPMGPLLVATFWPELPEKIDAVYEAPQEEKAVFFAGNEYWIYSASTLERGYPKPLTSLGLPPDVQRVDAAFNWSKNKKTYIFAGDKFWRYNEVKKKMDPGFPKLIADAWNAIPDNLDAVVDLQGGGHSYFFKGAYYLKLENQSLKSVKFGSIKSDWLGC
Excerpt: (§1) The binding of an activity-based probe, e.g., HxBP-Bt, to the active site of an MMP (as shown in FIG. 1A) would effectively reduce (or inhibit) the ability of such MMP to cleave its substrate. […] This correlation should also provide an IC50 value to measure the sensitivity/potency of the MAMBI system to bind, and thereby quantify, active MMPs. […] Fluorescence resonance energy transfer (FRET) technique is used to determine if a substrate is cleaved by pre-labeling two parts of a substrate molecule with a donor chromophore and an acceptor chromophore, respectively, and measuring the energy transfer efficiency from the donor to the acceptor chromophore to determine if two fluorophores are within a certain distance of each other, i.e. the substrate is intact and uncleaved. Here, HxBP-Bt bound MMP samples were mixed with chromophore-labeled substrate peptides in 384-well OptiPlates® at 37° C. using timelapse fluorimetry in the Spectromax® M3 and M2e fluorimeters (Molecular Devices). The fluorescence was monitored by plate reader. In general, readings measured fluorescence every 20 minutes for roughly five hours and the reported rate of increase in fluorescence was calculated from fitting a linear portion of this increase including at least 4 data points and subtracting the average increase in background, protease-free conditions. […] Reaction velocities were calculated from linear reaction periods from raw fluorescence value time courses. […] Relative rates of FRET substrate cleavage among samples with the addition of HxBP-Bt were quantified and compared with the rates without HxBP-Bt. Activities of recombinant MMPs 1, 7, 8, 12 and 13, in the presence or absence of HxBP-Bt probe, were characterized with […]008 (Dabcyl-[…]); MMPs 2 and 9 with […]011 (Dabcyl-[…]) and MMPs 3 and 10 with […]052 (Dabcyl-[…]). […] These IC50 values were used to estimate binding off-rates in the computational model. IC50 of the inhibitor was calculated by fitting the resulting dose-dependent data with the PRISM software (GraphPad, USA)

MMP3 = MMP3 (Homo sapiens, UniProt P08254); assay: as above; format: biochemical; design: purchased Peprotech; settings: FRET substrate PEPDAB052 10 μM, read-out: IC50, inhibition of substrate cleavage of active MMP
Excerpt: as §1

MMP1 = target: T2, MMP1 (Homo sapiens, UniProt P03956); assay: as above; format: biochemical; design: purchased Peprotech; settings: FRET substrate PEPDAB008 10 μM, read-out: IC50, inhibition of substrate cleavage of active MMP
T2 sequence (P03956 100-469): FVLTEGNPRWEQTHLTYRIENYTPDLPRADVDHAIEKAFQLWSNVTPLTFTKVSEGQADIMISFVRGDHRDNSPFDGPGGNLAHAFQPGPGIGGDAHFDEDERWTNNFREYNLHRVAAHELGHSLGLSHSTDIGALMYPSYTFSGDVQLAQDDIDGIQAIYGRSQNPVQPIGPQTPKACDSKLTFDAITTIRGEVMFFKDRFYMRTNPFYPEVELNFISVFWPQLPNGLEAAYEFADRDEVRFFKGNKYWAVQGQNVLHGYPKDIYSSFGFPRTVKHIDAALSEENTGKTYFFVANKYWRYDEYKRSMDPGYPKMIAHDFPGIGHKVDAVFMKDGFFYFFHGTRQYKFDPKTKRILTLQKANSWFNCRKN
Excerpt: as §1

MMP12 = MMP12 (Homo sapiens, UniProt P39900); assay: as above; format: biochemical; design: The recombinant catalytic domains of human MMPs 7 and 9 were purchased from Enzo Life Sciences, and of MMP 12 from Anaspec; purchased Anaspec; settings: FRET substrate PEPDAB008 10 μM, read-out: IC50, inhibition of substrate cleavage of active MMP
Excerpt: The binding of an activity-based probe, e.g., HxBP-Bt, to the active site of an MMP (as shown in FIG. 1A) would effectively reduce (or inhibit) the ability of such MMP to cleave its substrate. […] This correlation should also provide an IC50 value to measure the sensitivity/potency of the MAMBI system to bind, and thereby quantify, active MMPs. […] Fluorescence resonance energy transfer (FRET) technique is used to determine if a substrate is cleaved by pre-labeling two parts of a substrate molecule with a donor chromophore and an acceptor chromophore, respectively, and measuring the energy transfer efficiency from the donor to the acceptor chromophore to determine if two fluorophores are within a certain distance of each other, i.e. the substrate is intact and uncleaved. […] The fluorescence was monitored by plate reader. In general, readings measured fluorescence every 20 minutes for roughly five hours and the reported rate of increase in fluorescence was calculated from fitting a linear portion of this increase including at least 4 data points and subtracting the average increase in background, protease-free conditions. […] Reaction velocities were calculated from linear reaction periods from raw fluorescence value time courses. […] Relative rates of FRET substrate cleavage among samples with the addition of HxBP-Bt were quantified and compared with the rates without HxBP-Bt. […]

Sequence of MMP3 (P08254 100-477): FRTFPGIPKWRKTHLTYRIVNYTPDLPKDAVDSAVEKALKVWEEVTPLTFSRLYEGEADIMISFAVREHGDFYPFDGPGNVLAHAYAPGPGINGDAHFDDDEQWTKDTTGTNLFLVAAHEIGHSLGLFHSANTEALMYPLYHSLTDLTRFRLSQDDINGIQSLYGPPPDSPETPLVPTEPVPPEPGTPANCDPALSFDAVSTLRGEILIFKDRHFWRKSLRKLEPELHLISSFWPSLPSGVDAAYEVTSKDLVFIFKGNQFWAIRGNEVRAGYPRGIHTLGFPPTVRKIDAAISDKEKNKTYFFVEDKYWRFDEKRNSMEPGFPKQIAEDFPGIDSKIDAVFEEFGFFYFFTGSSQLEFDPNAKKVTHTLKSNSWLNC
Sequence of MMP12 (P39900 106-263 limits assumed): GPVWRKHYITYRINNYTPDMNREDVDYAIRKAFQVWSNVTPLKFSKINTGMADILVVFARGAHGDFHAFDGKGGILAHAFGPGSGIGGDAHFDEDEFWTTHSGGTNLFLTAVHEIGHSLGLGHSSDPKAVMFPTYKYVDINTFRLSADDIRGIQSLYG

In the case of `CC(C)CC(C(=O)NC(Cc1ccc(C(=O)c2ccccc2)cc1)C(=O)NCCOCCOCCOCC(=O)NCC(C)(C)SSC(C)(C)CNC(=O)CCCCC1SCC2NC(=O)NC21)C(O)C(=O)NO` (centres unmarked) [HxBP-Bt, biotin-tagged hydroxamate benzophenone (HxBP-Bt) probe], the “effect on substrate cleavage” value [1] is reported as “inhibited substrate cleavage in all samples”, the IC50 (MMP2) is reported as 3.3 nM and the IC50 (MMP3) is reported as 61 nM. It also gave an IC50 (MMP1) of 2.1 nM and an IC50 (MMP12) of 4 nM.
